Measured values as given in ChEMBL document CHEMBL1201862, “PubChem BioAssay data set” (2004).
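Step 1: Grow cells in 96-well plates. Step 2: Expose to compound for 48 hours at 5 concentrations. Step 3: Interpolate endpoints linearly; if unreached, use highest concentration. GI50 marks 50% less growth.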 The source made the active and inactive calls. Cut-off read from the data, not from the text of the source: active = GI50 up to about 1.1 µM and inactive = higher.

Experiments:
Assay in all cases: NCI anticancer screen, dose series, 48 h
786-0 = system: 786-0
A498 = system: A498
DU-145 = system: DU-145
HCC 2998 = system: HCC 2998
HOP-62 = system: HOP-62
IGROV-1 = system: IGROV-1
KM12 = system: KM12
LOX IMVI = system: LOX IMVI
MDA-MB-231 = system: MDA-MB-231
MDA-MB-435 = system: MDA-MB-435
MOLT-4 = system: MOLT-4
Malme-3M = system: Malme-3M
NCI/ADR-RES = system: NCI/ADR-RES
RPMI-8226 = system: RPMI-8226
SF-539 = system: SF-539
SK-MEL-5 = system: SK-MEL-5
SW-620 = system: SW-620
UACC-257 = system: UACC-257
SF-268 = system: SF-268
UO-31 = system: UO-31

Row | SMILES | GI50 (786-0) | GI50 (A498) | GI50 (DU-145) | GI50 (HCC 2998) | GI50 (HOP-62) | GI50 (IGROV-1) | GI50 (KM12) | GI50 (LOX IMVI) | GI50 (MDA-MB-231) | GI50 (MDA-MB-435) | GI50 (MOLT-4) | GI50 (Malme-3M) | GI50 (NCI/ADR-RES) | GI50 (RPMI-8226) | GI50 (SF-539) | GI50 (SK-MEL-5) | GI50 (SW-620) | GI50 (UACC-257) | GI50 (SF-268) | GI50 (UO-31)
1 | COc1ccc(Cc2nc3cc(C(F)(F)F)ccc3n2C[C@@H]2CCCN3CCCCC23)cc1 (stereo partly specified) | 5.55 µM (inactive) | 4.4 µM (inactive) | 11 µM (inactive) | 2 µM (inactive) | 8.73 µM (inactive) | 5.42 µM (inactive) | 13.5 µM (inactive) | 10.5 µM (inactive) | 11 µM (inactive) | 12.2 µM (inactive) | 6.84 µM (inactive) | 3.18 µM (inactive) | 14.2 µM (inactive) | 11.6 µM (inactive) | 13.5 µM (inactive) | 6.92 µM (inactive) | 21.3 µM (inactive) | 2.46 µM (inactive) | – | –
2 | O=C(c1ccccc1Br)C(F)(F)F | > 100 µM (inactive) | > 100 µM (inactive) | > 100 µM (inactive) | > 100 µM (inactive) | > 100 µM (inactive) | > 100 µM (inactive) | > 100 µM (inactive) | > 100 µM (inactive) | > 100 µM (inactive) | > 100 µM (inactive) | > 100 µM (inactive) | > 100 µM (inactive) | > 100 µM (inactive) | > 100 µM (inactive) | > 100 µM (inactive) | > 100 µM (inactive) | > 100 µM (inactive) | – | > 100 µM (inactive) | > 100 µM (inactive)
3 | CC1(C)CC(=O)C2=C(C1)OC1=C(CC(C)(C)CC1=O)C2c1ccccc1[N+](=O)[O-] (stereo unspecified) | > 100 µM (inactive) | > 100 µM (inactive) | > 100 µM (inactive) | > 100 µM (inactive) | > 100 µM (inactive) | > 100 µM (inactive) | > 100 µM (inactive) | > 100 µM (inactive) | > 100 µM (inactive) | > 100 µM (inactive) | > 100 µM (inactive) | > 100 µM (inactive) | > 100 µM (inactive) | > 100 µM (inactive) | > 100 µM (inactive) | > 100 µM (inactive) | > 100 µM (inactive) | – | > 100 µM (inactive) | 2 µM (inactive)
4 | CC(=O)OCCn1c(Cc2ccc(C)cc2)nn(C(C)=O)c1=O | > 100 µM (inactive) | > 100 µM (inactive) | > 100 µM (inactive) | > 100 µM (inactive) | – | > 100 µM (inactive) | > 100 µM (inactive) | > 100 µM (inactive) | > 100 µM (inactive) | > 100 µM (inactive) | > 100 µM (inactive) | > 100 µM (inactive) | > 100 µM (inactive) | > 100 µM (inactive) | > 100 µM (inactive) | > 100 µM (inactive) | > 100 µM (inactive) | > 100 µM (inactive) | > 100 µM (inactive) | > 100 µM (inactive)
5 | Cc1ccc(Cl)c2c1NC(=O)/C2=N\Nc1ccccc1[N+](=O)[O-] | 28.8 µM (inactive) | > 100 µM (inactive) | 47.1 µM (inactive) | 36.9 µM (inactive) | 56.1 µM (inactive) | 6.53 µM (inactive) | 23.8 µM (inactive) | 25.6 µM (inactive) | 75 µM (inactive) | 15.7 µM (inactive) | 37.3 µM (inactive) | 42.7 µM (inactive) | 57.1 µM (inactive) | 52.8 µM (inactive) | 21.3 µM (inactive) | – | 27 µM (inactive) | 82.2 µM (inactive) | 45.8 µM (inactive) | 34.8 µM (inactive)
6 | COC(=O)c1scc(N)c1-n1ccc(=O)[nH]c1=O | > 100 µM (inactive) | > 100 µM (inactive) | > 100 µM (inactive) | > 100 µM (inactive) | – | > 100 µM (inactive) | > 100 µM (inactive) | > 100 µM (inactive) | > 100 µM (inactive) | > 100 µM (inactive) | > 100 µM (inactive) | > 100 µM (inactive) | > 100 µM (inactive) | > 100 µM (inactive) | > 100 µM (inactive) | > 100 µM (inactive) | > 100 µM (inactive) | > 100 µM (inactive) | > 100 µM (inactive) | > 100 µM (inactive)
7 | O=c1[nH]c(=O)n(C2OC(CO)C(O)C(F)C2O)cc1F (stereo unspecified) | > 100 µM (inactive) | > 100 µM (inactive) | > 100 µM (inactive) | > 100 µM (inactive) | – | – | – | > 100 µM (inactive) | > 100 µM (inactive) | > 100 µM (inactive) | 0.0803 µM (active) | > 100 µM (inactive) | > 100 µM (inactive) | > 100 µM (inactive) | > 100 µM (inactive) | > 100 µM (inactive) | > 100 µM (inactive) | > 100 µM (inactive) | > 100 µM (inactive) | > 100 µM (inactive)
8 | CN1C/C(=C\c2cccs2)C2=NN(C)C(c3cccs3)C2C1 (stereo unspecified) | > 100 µM (inactive) | 46.7 µM (inactive) | > 100 µM (inactive) | 42.1 µM (inactive) | > 100 µM (inactive) | 32.4 µM (inactive) | > 100 µM (inactive) | > 100 µM (inactive) | 67.9 µM (inactive) | > 100 µM (inactive) | 28.8 µM (inactive) | > 100 µM (inactive) | > 100 µM (inactive) | 24.8 µM (inactive) | – | 58.3 µM (inactive) | > 100 µM (inactive) | > 100 µM (inactive) | > 100 µM (inactive) | 75.7 µM (inactive)
9 | COc1cc2cc(C(=O)N3C[C@H](CCl)c4c3cc(O)c3ccccc43)[nH]c2c(OC)c1OC | 0.0861 µM (active) | 0.248 µM (active) | 0.628 µM (active) | 0.16 µM (active) | 0.044 µM (active) | 0.121 µM (active) | 0.213 µM (active) | 0.101 µM (active) | 1.69 µM (inactive) | 0.222 µM (active) | 0.0381 µM (active) | 0.152 µM (active) | 0.136 µM (active) | 0.121 µM (active) | 0.055 µM (active) | 0.0137 µM (active) | 0.174 µM (active) | – | 0.117 µM (active) | 0.13 µM (active)
10 | COc1ccc(N2C(=O)C3c4[nH]c5ccc(C)cc5c4C4CCC(c5ccccc5)CC4C3C2=O)cc1 (stereo unspecified) | 9.64 µM (inactive) | 22.9 µM (inactive) | > 100 µM (inactive) | > 100 µM (inactive) | 7.05 µM (inactive) | > 51.3 µM (inactive) | > 100 µM (inactive) | > 57.3 µM (inactive) | 8.41 µM (inactive) | > 100 µM (inactive) | 41.2 µM (inactive) | > 100 µM (inactive) | > 100 µM (inactive) | > 82.8 µM (inactive) | – | > 100 µM (inactive) | > 100 µM (inactive) | > 100 µM (inactive) | 11.8 µM (inactive) | > 89.5 µM (inactive)
11 | O=c1[nH]nc(Cc2ccc(Cl)cc2)n1CCO | > 100 µM (inactive) | > 100 µM (inactive) | > 100 µM (inactive) | > 100 µM (inactive) | – | > 100 µM (inactive) | > 100 µM (inactive) | > 100 µM (inactive) | > 100 µM (inactive) | > 100 µM (inactive) | > 100 µM (inactive) | > 100 µM (inactive) | > 100 µM (inactive) | > 100 µM (inactive) | > 100 µM (inactive) | > 100 µM (inactive) | > 100 µM (inactive) | > 100 µM (inactive) | > 100 µM (inactive) | > 100 µM (inactive)
